From PubChem BioAssay (NCI)
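Exposure lasted 48 hours, with cells grown in 96-well plates and compounds tested at five concentrations. Here, GI50 denotes the concentration required for 50% inhibition of growth. TGI: total growth inhibition.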

Columns and labels:
Experiment in all cases: inhibition of tumour cell growth, NCI panel, 48 h
[1] = system: ACHN renal
[2] = system: SNB-78 CNS
[3] = system: DMS 114 small cell lung
[4] = system: SF-268 CNS
[5] = system: EKVX NSCLC
[6] = system: OVCAR-8 ovarian
[7] = system: DLD-1 colon
[8] = system: RXF 393 renal
[9] = system: HT29 colon
[10] = system: M19-MEL melanoma
[11] = system: PC-3 prostate
[12] = system: BT-549 breast

| SMILES | TGI [1] | TGI [2] | TGI [3] | TGI [4] | TGI [5] | TGI [6] | TGI [7] | TGI [8] | TGI [9] | TGI [10] | TGI [11] | TGI [12] | GI50 [5] | GI50 [11] | GI50 [12] | GI50 [8] |
| --- | --- | --- | --- | --- | --- | --- | --- | --- | --- | --- | --- | --- | --- | --- | --- | --- |
| CO/C(=N\N=C\c1ccc(Cl)cc1)c1ccncc1 | > 100 µM | > 100 µM | > 100 µM | > 100 µM | > 100 µM | > 100 µM | > 100 µM | > 100 µM | > 100 µM | – | – | – | – | – | – | – |
| CN(C)N=Nc1ccc([N+](=O)[O-])cc1C(N)=O | – | > 100 µM | > 100 µM | > 100 µM | > 100 µM | > 100 µM | > 100 µM | > 100 µM | > 100 µM | > 100 µM | – | – | – | – | – | – |
| Cc1cn(C2CC(O)C(CO)C2C)c(=O)[nH]c1=O (stereo not given) | > 100 µM | > 100 µM | > 100 µM | > 100 µM | > 100 µM | > 100 µM | > 100 µM | > 100 µM | > 100 µM | > 100 µM | – | – | – | – | – | – |
| COC(=O)C1=C(C)N2CCCOC2(C)C(C(=O)OC)C1c1cccc(Cl)c1 (stereo not given) | 93.3 µM | – | 60.5 µM | > 100 µM | 89.3 µM | 87.9 µM | – | > 100 µM | 56.2 µM | 54.3 µM | – | – | – | – | – | – |
| CN(Cc1c2ccccc2cc2ccccc12)S(=O)(=O)c1ccc(-c2c3nc(c(-c4ccc(S(=O)(=O)N(C)Cc5c6ccccc6cc6ccccc56)cc4)c4ccc([nH]4)c(-c4ccc(S(=O)(=O)N(C)Cc5c6ccccc6cc6ccccc56)cc4)c4nc(c(-c5ccc(S(=O)(=O)N(C)Cc6c7ccccc7cc7ccccc67)cc5)c5ccc2[nH]5)C=C4)C=C3)cc1 | > 100 µM | – | – | > 100 µM | > 100 µM | > 100 µM | – | > 100 µM | > 100 µM | – | > 100 µM | > 100 µM | – | – | – | – |
| Cc1cc2c(cc1-c1cc3c(cc1C)C(C(C)C)=C(O)C(=O)/C3=C\Nc1nc(-c3ccccc3)cs1)/C(=C/Nc1nc(-c3ccccc3)cs1)C(=O)C(O)=C2C(C)C | 31.2 µM | – | – | 72 µM | 52.1 µM | 77 µM | – | 54.5 µM | 50.2 µM | – | 37.3 µM | 89 µM | – | – | – | – |
| COc1cc(/C=C2\C[C@H]3[C@@H]4CC=C5C[C@@H](N6CCCC6)CC[C@]5(C)[C@H]4CC[C@]3(C)[C@H]2O)cc(OC)c1OC | 29.3 µM | – | – | 16.5 µM | 30.2 µM | 23.4 µM | – | 20.2 µM | 14.5 µM | – | 28.8 µM | 30.1 µM | – | – | – | – |
| COCn1c(C)c(C)c2c(=O)oc(=O)[nH]c21 | > 100 µM | – | – | > 100 µM | > 100 µM | > 100 µM | – | > 100 µM | > 100 µM | – | > 100 µM | > 100 µM | – | – | – | – |
| Cc1c(CNc2ccc(Cl)c(C(=O)NC(CC(=O)O)C(=O)O)c2)ccc2nc(N)nc(N)c12 (stereo not given) | > 1000 µM | – | – | > 1000 µM | > 1000 µM | > 1000 µM | – | > 1000 µM | > 1000 µM | – | > 1000 µM | > 1000 µM | 284 µM | < 0.01 µM | 666 µM | > 1000 µM |
| C=CCNC1=C2C[C@@H](C)C[C@@H](OC)C(OC(=O)CCCN(C)C)[C@H](C)/C=C(\C)[C@@H](OC(N)=O)[C@H](OC)/C=C\C=C(/C)C(=O)NC(=CC1=O)C2=O (stereo not given in full) | 20.6 µM | – | – | 27.6 µM | 26.1 µM | 16 µM | – | 18.6 µM | 12.1 µM | – | 17.2 µM | 27.6 µM | – | – | – | – |
| Cc1c(-c2ccccc2)c(C#N)c2nnn(-c3ccccc3)c(=O)n12 | > 100 µM | – | – | > 100 µM | > 100 µM | > 100 µM | – | > 100 µM | > 100 µM | – | > 100 µM | > 100 µM | – | – | – | – |
| CC(C)CC(=O)NC(Nc1ccc(S(=O)(=O)Nc2ncccn2)cc1)(C(F)(F)F)C(F)(F)F | > 100 µM | – | – | > 100 µM | > 100 µM | > 100 µM | – | > 100 µM | > 100 µM | – | > 100 µM | > 100 µM | – | – | – | – |
| O=C1COC(c2ccccc2O)=NN1CCCN1CCCC1 | > 100 µM | – | – | > 100 µM | > 100 µM | > 100 µM | – | > 100 µM | > 100 µM | – | > 100 µM | > 100 µM | – | – | – | – |
| CN(C(=O)C12C3C4(C(=O)O)C1(C(=O)N(C)C(C)(C)C)C1C2(C(=O)O)C3(C(=O)N(C)C(C)(C)C)C14C(=O)N(C)C(C)(C)C)C(C)(C)C (stereo not given) | > 100 µM | – | – | > 100 µM | > 100 µM | > 100 µM | – | > 100 µM | > 100 µM | – | > 100 µM | > 100 µM | – | – | – | – |
| CCSSCS(C)(=O)=O | > 100 µM | – | – | > 100 µM | > 100 µM | 57.4 µM | – | 49.5 µM | > 100 µM | – | > 100 µM | 96.5 µM | – | – | – | – |
| CC/C(Cl)=N\OC(=O)Nc1ccc(OC)cc1 | 3.5 µM | – | – | 32.1 µM | 11.9 µM | 37.4 µM | – | 6.52 µM | 33.8 µM | – | 29.5 µM | 3.17 µM | – | – | – | – |
| Cc1cc(NS(=O)(=O)c2ccc(NC(=O)c3ccc4nc5ccccc5c(Nc5ccc(S(=O)(=O)N=C(N)N)cc5)c4c3)cc2)no1 | 26.4 µM | – | – | 37.3 µM | 30 µM | 32.9 µM | – | 31.1 µM | 38.2 µM | – | 39.3 µM | 46 µM | – | – | – | – |
| Cc1ccccc1N=C(N)NC#N | > 100 µM | – | – | > 100 µM | > 100 µM | > 100 µM | – | > 100 µM | > 100 µM | – | > 100 µM | > 100 µM | – | – | – | – |
| CC1(C)CCC[C@]2(C)[C@@H]1CC[C@@]13O[C@@H]1C1=C(CO)C(=O)O[C@]14O[C@@H]4[C@@H]23 | 30.2 µM | – | – | 29.6 µM | 24.9 µM | 26.7 µM | – | 25.2 µM | 26.2 µM | – | 25.5 µM | 31.8 µM | – | – | – | – |
| C=Nc1ccc([N+](=O)[O-])cc1 | > 100 µM | > 100 µM | > 100 µM | > 100 µM | > 100 µM | > 100 µM | > 100 µM | – | > 100 µM | > 100 µM | – | – | – | – | – | – |
| Oc1nc(N/N=C/c2c[nH]c3ccccc23)[nH]c1/C=C1\C=Nc2ccccc21 | 49.1 µM | – | – | 43.1 µM | 89.6 µM | 29.2 µM | – | > 100 µM | 47.5 µM | – | 32 µM | 60.3 µM | – | – | – | – |
| C/C(O)=C/c1nc2ccccc2nc1/C=C(/C)O | 47.7 µM | – | – | 64.6 µM | 71.5 µM | 83.3 µM | – | 65.2 µM | 43.3 µM | – | > 100 µM | > 100 µM | – | – | – | – |
